In ChEMBL document CHEMBL1201862, “PubChem BioAssay data set” (2004):
The source made the active and inactive calls.

Experiments:
[1] = molecular target: T1, Sentrin-specific protease 7 (Homo sapiens, UniProt Q9BQF6); test: SENP7 protease inhibitors, SAR follow-up, biochemical, luminescence (AID 504497); type: functional
T1 sequence (Q9BQF6 whole entry): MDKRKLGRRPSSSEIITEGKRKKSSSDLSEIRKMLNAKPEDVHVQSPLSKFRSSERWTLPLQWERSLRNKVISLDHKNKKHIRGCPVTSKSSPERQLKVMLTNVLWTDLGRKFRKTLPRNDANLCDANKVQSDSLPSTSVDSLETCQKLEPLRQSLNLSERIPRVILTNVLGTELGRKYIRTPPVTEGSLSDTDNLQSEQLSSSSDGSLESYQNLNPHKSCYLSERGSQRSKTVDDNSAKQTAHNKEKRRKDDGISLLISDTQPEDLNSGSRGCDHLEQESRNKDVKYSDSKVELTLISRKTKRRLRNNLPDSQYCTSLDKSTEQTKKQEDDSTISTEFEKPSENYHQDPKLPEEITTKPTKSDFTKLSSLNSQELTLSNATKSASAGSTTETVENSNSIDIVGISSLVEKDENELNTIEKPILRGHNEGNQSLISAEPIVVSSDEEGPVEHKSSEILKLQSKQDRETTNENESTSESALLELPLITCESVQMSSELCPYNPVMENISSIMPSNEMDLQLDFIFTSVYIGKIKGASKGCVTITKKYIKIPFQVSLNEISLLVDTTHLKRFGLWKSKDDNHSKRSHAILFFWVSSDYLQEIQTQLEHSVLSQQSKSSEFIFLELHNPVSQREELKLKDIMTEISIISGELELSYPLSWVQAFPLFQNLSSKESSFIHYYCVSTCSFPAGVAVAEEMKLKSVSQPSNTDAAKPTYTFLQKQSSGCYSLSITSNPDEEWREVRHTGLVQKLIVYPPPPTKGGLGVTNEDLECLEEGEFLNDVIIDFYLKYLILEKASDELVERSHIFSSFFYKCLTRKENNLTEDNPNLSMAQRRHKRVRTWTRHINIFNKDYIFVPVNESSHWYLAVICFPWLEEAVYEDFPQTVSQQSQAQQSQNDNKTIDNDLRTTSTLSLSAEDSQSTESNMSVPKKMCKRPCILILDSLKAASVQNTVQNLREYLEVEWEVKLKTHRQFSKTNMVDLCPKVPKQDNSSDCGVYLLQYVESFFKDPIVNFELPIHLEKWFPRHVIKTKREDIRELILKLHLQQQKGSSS

[2] = molecular target: T2, Sentrin-specific protease 6 (Homo sapiens, UniProt Q9GZR1); test: SAR Analysis of small molecule inhibitors of Sentrin-specific protease 6 (SENP6) using a Luminescent assay. [Related pubchem assays (depositor defined):AID2582, AID2599]; type: functional
T2 sequence (Q9GZR1 whole entry): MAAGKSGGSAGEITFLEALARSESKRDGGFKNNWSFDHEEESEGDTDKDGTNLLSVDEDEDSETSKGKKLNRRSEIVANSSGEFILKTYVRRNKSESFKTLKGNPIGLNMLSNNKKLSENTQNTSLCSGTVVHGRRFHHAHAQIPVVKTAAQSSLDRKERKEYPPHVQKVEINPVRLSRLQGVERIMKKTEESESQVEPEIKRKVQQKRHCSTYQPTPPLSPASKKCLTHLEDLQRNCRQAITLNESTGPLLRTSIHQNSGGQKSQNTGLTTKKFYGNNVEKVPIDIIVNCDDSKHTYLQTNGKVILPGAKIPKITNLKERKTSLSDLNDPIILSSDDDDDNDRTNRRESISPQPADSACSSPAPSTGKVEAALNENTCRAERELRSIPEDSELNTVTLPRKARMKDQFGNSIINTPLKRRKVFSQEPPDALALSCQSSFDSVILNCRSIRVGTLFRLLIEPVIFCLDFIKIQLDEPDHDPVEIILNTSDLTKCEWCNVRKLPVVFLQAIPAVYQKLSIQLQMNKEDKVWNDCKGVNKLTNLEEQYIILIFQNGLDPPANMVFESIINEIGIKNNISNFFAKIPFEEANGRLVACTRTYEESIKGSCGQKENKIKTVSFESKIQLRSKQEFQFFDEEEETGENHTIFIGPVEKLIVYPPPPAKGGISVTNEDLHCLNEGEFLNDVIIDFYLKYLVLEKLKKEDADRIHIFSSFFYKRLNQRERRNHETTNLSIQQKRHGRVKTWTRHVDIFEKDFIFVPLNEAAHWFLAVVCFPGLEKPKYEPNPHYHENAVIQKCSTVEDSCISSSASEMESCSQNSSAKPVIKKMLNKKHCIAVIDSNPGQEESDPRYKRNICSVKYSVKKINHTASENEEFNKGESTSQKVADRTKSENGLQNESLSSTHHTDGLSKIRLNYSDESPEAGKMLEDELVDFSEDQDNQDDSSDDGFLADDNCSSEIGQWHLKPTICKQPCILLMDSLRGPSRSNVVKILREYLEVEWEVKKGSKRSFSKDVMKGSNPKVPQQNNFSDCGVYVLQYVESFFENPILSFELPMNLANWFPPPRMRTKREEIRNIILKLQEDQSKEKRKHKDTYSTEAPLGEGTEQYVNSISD

[3] = molecular target: T3, Sentrin-specific protease 8 (Homo sapiens, UniProt Q96LD8); test: SENP8 protease inhibitors, SAR follow-up, biochemical, luminescence (AID 504501); type: functional
T3 sequence (Q96LD8 whole entry): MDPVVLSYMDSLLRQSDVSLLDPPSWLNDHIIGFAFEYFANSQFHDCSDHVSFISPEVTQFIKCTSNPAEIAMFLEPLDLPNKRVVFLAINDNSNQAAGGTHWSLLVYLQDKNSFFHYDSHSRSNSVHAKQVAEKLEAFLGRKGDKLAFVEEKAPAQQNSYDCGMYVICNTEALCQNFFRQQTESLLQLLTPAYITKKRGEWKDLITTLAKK

Caspase-3 = molecular target: T4, Caspase-3 (Homo sapiens, UniProt P42574); test: SAR Analysis of small molecule inhibitors of Sentrin-specific proteases (SENPs) using a Caspase-3 Selectivity assay. [Related pubchem assays (depositor defined):AID2540, AID2599, AID434973, AID489001]; type: functional
T4 sequence (P42574 whole entry): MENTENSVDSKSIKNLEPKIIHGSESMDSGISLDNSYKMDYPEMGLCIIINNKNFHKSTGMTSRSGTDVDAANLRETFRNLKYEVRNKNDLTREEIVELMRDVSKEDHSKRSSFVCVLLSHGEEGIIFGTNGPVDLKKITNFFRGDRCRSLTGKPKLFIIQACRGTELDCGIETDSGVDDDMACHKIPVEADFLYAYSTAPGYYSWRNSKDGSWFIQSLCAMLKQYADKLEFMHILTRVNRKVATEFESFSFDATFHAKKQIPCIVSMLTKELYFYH

Protein RecA = molecular target: T5, Protein RecA (Mycobacterium tuberculosis, UniProt P9WHJ3); test: Fluorescence Cell-Free Homogeneous Dose Retest to Identify Inhibitors of RecA-Intein Splicing Activity. [Related pubchem assays (depositor defined):AID2097, AID2223, AID489010, AID492950]; type: functional
T5 sequence (P9WHJ3 whole entry): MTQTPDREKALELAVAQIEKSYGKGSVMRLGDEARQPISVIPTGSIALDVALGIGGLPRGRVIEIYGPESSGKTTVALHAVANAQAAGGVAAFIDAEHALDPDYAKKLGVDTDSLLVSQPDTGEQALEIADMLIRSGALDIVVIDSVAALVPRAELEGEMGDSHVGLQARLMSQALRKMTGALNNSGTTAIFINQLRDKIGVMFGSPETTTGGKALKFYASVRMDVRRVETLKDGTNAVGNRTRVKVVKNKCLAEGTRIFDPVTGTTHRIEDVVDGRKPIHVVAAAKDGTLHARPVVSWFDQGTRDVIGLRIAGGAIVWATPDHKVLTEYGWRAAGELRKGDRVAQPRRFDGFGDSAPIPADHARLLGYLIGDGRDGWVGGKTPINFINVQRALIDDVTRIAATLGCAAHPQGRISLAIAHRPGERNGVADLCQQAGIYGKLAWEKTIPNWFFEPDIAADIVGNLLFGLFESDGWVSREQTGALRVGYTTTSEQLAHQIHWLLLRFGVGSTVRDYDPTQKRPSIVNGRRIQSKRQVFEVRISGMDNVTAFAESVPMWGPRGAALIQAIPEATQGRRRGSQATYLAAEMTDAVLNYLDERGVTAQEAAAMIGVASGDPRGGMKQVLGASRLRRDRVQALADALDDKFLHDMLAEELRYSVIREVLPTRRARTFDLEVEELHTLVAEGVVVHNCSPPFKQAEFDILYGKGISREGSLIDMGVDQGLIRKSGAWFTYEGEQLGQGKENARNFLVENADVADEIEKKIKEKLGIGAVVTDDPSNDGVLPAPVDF

Beta-galactosidase = Beta-galactosidase (Escherichia coli, UniProt Q8VNN2); test: PubChem AID 485352; type: functional
Sequence of Beta-galactosidase (Q8VNN2 whole entry): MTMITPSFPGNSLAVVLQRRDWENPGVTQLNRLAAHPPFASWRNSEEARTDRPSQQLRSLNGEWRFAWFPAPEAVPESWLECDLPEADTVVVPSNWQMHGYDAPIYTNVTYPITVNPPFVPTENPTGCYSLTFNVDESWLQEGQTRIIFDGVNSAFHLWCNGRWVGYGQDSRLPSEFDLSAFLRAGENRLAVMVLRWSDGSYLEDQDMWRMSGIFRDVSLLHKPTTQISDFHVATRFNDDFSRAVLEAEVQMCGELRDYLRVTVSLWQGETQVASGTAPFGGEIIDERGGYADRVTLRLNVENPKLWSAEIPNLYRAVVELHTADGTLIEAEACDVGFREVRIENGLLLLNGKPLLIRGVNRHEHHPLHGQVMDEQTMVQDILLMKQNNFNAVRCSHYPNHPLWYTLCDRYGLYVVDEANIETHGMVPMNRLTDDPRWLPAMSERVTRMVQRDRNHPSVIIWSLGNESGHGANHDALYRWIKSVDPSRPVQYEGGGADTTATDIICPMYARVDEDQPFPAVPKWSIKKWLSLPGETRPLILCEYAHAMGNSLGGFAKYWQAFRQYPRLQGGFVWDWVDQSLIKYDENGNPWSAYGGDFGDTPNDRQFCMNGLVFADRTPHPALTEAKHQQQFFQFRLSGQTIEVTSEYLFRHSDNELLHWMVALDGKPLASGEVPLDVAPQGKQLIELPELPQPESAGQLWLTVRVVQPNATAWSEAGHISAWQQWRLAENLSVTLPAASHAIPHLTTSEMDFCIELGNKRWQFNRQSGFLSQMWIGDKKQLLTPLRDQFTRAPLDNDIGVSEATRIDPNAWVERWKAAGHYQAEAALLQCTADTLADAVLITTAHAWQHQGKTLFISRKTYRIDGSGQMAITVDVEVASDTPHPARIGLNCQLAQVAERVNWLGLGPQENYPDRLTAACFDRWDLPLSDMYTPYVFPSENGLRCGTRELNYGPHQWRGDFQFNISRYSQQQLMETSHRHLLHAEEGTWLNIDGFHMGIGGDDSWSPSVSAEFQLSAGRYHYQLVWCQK

Beta Lactamase = Beta Lactamase (Pseudomonas aeruginosa, UniProt Q932Y6); test: beta-lactamase reporter inhibitor potency, dose response, artefact control for TLR9-MyD88 binding inhibitor project, BLA reporter cells, FRET fluorescence (AID 588341); type: cell-based;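 further: cell based assay in CHO-K1 cells stably expressing beta-lactamase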
Sequence of Beta Lactamase (Q932Y6 whole entry): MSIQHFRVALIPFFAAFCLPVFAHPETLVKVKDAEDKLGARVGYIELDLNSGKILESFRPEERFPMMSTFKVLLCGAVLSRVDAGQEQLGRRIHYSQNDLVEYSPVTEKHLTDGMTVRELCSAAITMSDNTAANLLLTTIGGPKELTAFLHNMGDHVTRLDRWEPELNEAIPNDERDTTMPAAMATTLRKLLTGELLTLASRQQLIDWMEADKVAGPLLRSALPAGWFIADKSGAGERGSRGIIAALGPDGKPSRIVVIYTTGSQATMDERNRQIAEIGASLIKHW

[4] = HepG2 cell cytotoxicity, dose response, cytotoxicity control for Shn3 inhibitor project, CellTiter-Glo, cherry-picked (AID 624134); type: functional, cell-based
[5] = cytotoxicity toward NIH3T3 fibroblasts, dose response, counter-screen, cell-based, ATP luminescence, mouse fibroblasts (AID 2010); type: functional;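 further: cells exposed to compound for about 90 hours before reading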
[6] = molecular target: T6, Type-1 angiotensin II receptor (Homo sapiens, UniProt P30556); test: AT1 receptor antagonists, dose response, selectivity assay for APJ receptor antagonist project, cell-based, uHTS hits (AID 463214); type: functional;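 further: antagonist potency against angiotensin II stimulated AT1 response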
T6 sequence (P30556 whole entry): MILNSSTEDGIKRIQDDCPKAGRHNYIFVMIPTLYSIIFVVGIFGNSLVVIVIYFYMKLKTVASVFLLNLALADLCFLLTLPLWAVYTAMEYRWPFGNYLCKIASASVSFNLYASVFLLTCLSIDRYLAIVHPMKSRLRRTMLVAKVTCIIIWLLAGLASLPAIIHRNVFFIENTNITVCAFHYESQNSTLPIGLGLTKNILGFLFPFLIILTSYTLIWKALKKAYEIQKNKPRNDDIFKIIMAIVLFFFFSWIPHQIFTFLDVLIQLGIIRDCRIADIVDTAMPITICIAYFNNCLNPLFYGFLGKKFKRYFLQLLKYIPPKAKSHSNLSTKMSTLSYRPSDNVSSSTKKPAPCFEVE

[7] = inhibitors of intracellular T. cruzi replication, confirmation, NIH3T3 host cells, beta-gal luminescence (AID 2044); type: functional, cell-based;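 further: intracellular parasites grown in NIH/3T3 mouse fibroblasts as host cells; luminescent beta-galactosidase reporter signal from transgenic T. cruzi replicating inside host cells; inhibitors lower the luminescence signal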
[8] = control 3'UTR Renilla luciferase suppression, dose response, counter-screen for Shn3 inhibitor project, cell-based, Clone20-Shn3RL, cherry-picked (AID 624133); type: functional
[9] = molecular target: T7, Replicative DNA helicase DnaB (Mycobacterium tuberculosis, UniProt P9WMR3); test: DnaB intein splicing inhibitors, dose response, biochemical, cell-free fluorescence (AID 449749); type: functional
T7 sequence (P9WMR3 whole entry): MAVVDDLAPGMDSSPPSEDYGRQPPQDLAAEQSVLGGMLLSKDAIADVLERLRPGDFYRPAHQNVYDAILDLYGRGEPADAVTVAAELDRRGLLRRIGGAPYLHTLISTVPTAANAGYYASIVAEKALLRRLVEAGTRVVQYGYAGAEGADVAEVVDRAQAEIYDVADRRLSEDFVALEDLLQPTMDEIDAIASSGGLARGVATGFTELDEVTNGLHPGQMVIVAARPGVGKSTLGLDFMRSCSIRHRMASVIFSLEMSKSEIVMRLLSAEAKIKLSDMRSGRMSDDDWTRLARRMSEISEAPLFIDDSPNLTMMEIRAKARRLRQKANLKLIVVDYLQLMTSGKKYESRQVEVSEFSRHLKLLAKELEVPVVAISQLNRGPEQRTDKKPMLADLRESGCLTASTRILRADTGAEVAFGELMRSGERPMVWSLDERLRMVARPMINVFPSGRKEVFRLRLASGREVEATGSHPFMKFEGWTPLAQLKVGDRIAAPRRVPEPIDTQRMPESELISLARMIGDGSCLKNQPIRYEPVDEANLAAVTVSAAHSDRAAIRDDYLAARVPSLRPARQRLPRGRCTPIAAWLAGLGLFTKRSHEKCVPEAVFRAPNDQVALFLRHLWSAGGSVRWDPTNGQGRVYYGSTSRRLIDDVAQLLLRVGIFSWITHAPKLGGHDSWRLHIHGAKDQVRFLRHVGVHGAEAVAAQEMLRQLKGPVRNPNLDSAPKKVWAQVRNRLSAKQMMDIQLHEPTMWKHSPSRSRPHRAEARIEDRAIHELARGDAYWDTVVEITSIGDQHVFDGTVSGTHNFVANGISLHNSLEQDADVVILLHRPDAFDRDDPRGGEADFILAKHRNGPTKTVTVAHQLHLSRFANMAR

INS1 = test: beta cell apoptosis inhibitors, cytokine rescue, dose response, luminescence, retest (AID 449756); type: functional, cell-based; details: Rattus norvegicus;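 further: cell death triggered by IL-1 beta plus TNF-alpha plus IFN-gamma mixture; protective hits raise ATP signal compared with cytokine alone wells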
CHO = test: cytotoxicity in TLR9-MyD88 CHO cells, dose response, cytotoxicity control for TLR9-MyD88 binding inhibitor project, cell-based, luminescence (AID 588339); type: functional, hamster; details: Cricetulus griseus;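 further: CHO cells stably coexpressing TLR9 and MyD88 fusions from primary screen; compound exposure lasted 48 hours before viability readout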
[10] = Shn3 3'UTR reporter inhibitors, dose response, cell-based, Clone20 osteoblasts, firefly luciferase, cherry-picked (AID 624132); type: functional;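 further: firefly luciferase luminescence from reporter carrying the Shn3 3'UTR in osteoblasts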
HEK293 = test: inhibitors of LMP1-driven NF-kB reporter, dose response, cell-based, HEK293, luciferase, cherry-pick (AID 588343); type: functional; details: Homo sapiens

Structure (SMILES) | IC50 [1] | IC50 [2] | IC50 [3] | IC50 (Caspase-3) | EC50 (Protein RecA) | EC50 (Beta-galactosidase) | IC50 (Beta Lactamase) | AC50 [4] | EC50 [5] | IC50 [6] | EC50 [7] | AC50 [8] | AC50 [9] | AC50 (INS1) | IC50 (CHO) | AC50 [10] | AC50 (HEK293)
COc1cc(C(=O)Nc2ccccc2F)ccc1OCc1ccc(Cl)cc1 | > 99 µM (inactive) | > 99 µM (inactive) | > 99 µM (inactive) | > 99 µM (inactive) | – | – | – | – | – | – | – | – | – | – | – | – | –
CS(=O)(=O)c1ncc(Cl)c(C(=O)Nc2ccc(OC(F)F)cc2)n1 | – | – | – | – | 3.72 µM (active) | > 40 µM (inactive) | 6.65 µM (active) | 22.1 µM (active) | 4.44 µM (active) | 7.79 µM (active) | 1.52 µM (active) | 7.27 µM (active) | 3.68 µM (active) | 8.07 µM (active) | 2.17 µM (active) | 0.682 µM (active) | 7.88 µM (active)
